Test: Pharmacokinetics after single inhaled dose of 5-MeO-DMT (LC-MS/MS)
Type: in vivo, human
Design: blood concentration relative to LLOQ: dose or concentration left out as unconfirmed
Conditions: metabolite after inhaled 5-MeO-DMT
Protocol: Blood samples were obtained at 1; 2; 4; 7; 10; 15; 20; 30; 45 min and 1; 1.5; 2; 3; 4 hours after administration.
PK parameters were generated by algebraic analysis of the concentration versus time plots for each individual. The analysis was carried out using the software Phoenix WinNonlin 6.3.

In the case of `CN(C)CCc1c[nH]c2ccc(O)cc12` [bufotenine], the “blood concentration observations with uptitration scheme” value is reported as “Substantially similar observations” and the “blood concentration relative to LLOQ” value is reported as “Only in few samples, concentrations were above the lower level of quantification”.

Reference: US20250205256A1 (GH RESEARCH IRELAND LIMITED, priority 2022, published 2025)
